Here are results for 2 compounds from patent publication EP0313981A2, “3-(4-Chlorphenyl)-2,2-dimethyl-3-hydroxy-4-(1,2,4-triazol-1-yl)-butyronitril” (BAYER AG, priority 1987, dated 1989).

The test system of one test is Asper-gillus fumi-gatus. Kind of test: Antifungal in vitro activity (MIC), Kimmig medium. The class given is cell-based. As to conditions: Aspergillus fumigatus, inoculum 5 x 10³ Keime/ml, 28 °C, 96 h, read-out: MHK-Werte (minimale Hemmkonzentration). How it is done:
(§1) Die in-vitro-Prüfungen wurden mit Keiminokula von durchschnittlich 5 x 10³ Keimen/ml Substrat durchgeführt. Als Nährmedium diente Kimmig-Medium.
(§2) Die Bebrütungstemperatur betrug 28 °C, die Bebrütungsdauer lag bei 24 bis 96 Stunden bei Hefen und 96 Stunden bei Dermatophyten und Schimmelpilzen.

In a further test the test system is Micro-sporum canis. Put plainly: Antifungal in vitro activity (MIC), Kimmig medium. The class given is cell-based. The settings on record: Microsporum canis, inoculum 5 x 10³ Keime/ml, 28 °C, 96 h, read-out: MHK-Werte (minimale Hemmkonzentration). As for the experimental part:
as §1, §2

A further test concerns Tricho-phyton mentagr. Put plainly: Antifungal in vitro activity (MIC), Kimmig medium. It is filed as cell-based. As to conditions: Trichophyton mentagrophytes, inoculum 5 x 10³ Keime/ml, 28 °C, 96 h, read-out: MHK-Werte (minimale Hemmkonzentration). As for the experimental part:
as §1, §2

For test [1], the system named is Candida albi-cans und sp. Kind of test: Antifungal in vitro activity (MIC), Kimmig medium. The class given is cell-based, Candida albicans. As to conditions: inoculum 5 x 10³ Keime/ml, 28 °C, 24 to 96 h, read-out: MHK-Werte (minimale Hemmkonzentration). As for the experimental part:
as §1, §2

In another test the test system is Toru-lopsis gla-brata. Kind of test: Antifungal in vitro activity (MIC), Kimmig medium. It is filed as cell-based, Torulopsis glabrata. As to conditions: Nakaseomyces glabratus, inoculum 5 x 10³ Keime/ml, 28 °C, 24 to 96 h, read-out: MHK-Werte (minimale Hemmkonzentration). How it is done:
as §1, §2

Another test deals with Candida-Zellen. Kind of test: Antifungal in vivo activity (oral) in mouse candidiasis. Further details: species or system Mäuse vom Typ SPF-CF₁. As to conditions: 2 x 5,0 mg/kg per day for 5 days; for Wirkung: mice infected i.v. with 1 x 10⁶ Candida cells, survivors on day 6 p.i.; for Wirkung (in words): mouse candidiasis. How it is done:
Mäuse vom Typ SPF-CF₁ werden intravenös mit 1 x 10⁶ logarithmisch wachsenden Candida-Zellen, die in physiologischer Kochsalzlösung suspendiert wurden, infiziert, Gleichzeitig mit der Infektion werden die Tiere mit jeweils 5,0 mg/kg Körpergewicht der Präparate oral behandelt.
Die Behandlung wird 5 Tage fortgesetzt; die Tagesdosis beträgt jeweils 2 mal 5,0 mg/kg Körpergewicht.
Unbehandelte Tiere sterben 3 bis 6 Tage post infektionem. Die Überlebensrate am 6.Tag post infektionem beträgt bei unbehandelten Kontrolltieren etwa 5 %.

The subject of test [2] is Trichophyton mentagrophytes. Kind of test: Antimicrobial in vivo activity (oral) in experimental guinea pig trichophytosis. As to conditions: 1 x 2,5 mg/kg per day for 10 days; for Wirkung (in words): guinea pig trichophytosis; for Wirkung: guinea pigs infected on the back with Trichophyton mentagrophytes, signs of infection day 12 to 15 p.i. Further details: species or system Meerschweinchen der Rasse Pirbright-white; key to Wirkung: +++++: = sehr gute Wirkung = keine Infektionszeichen am 12. bis 15. Tag p.i.; ++++: = gute Wirkung = geringe Rötung, vereinzelt Schuppen; +++: = Wirkung = Rötung, Schuppen ohne Haarausfall; ++: = schwache Wirkung = Rötung, Schuppen, Haaraus-fall; +: = Spurwirkung = flächiger Haarausfall, entzündliche Hautreaktion; k.w.: = keine Wirkung = kein Unterschied zur unbehandelten Kontrolle. As for the experimental part: Weiße Meerschweinchen der Rasse Pirbright-white werden auf dem geschorenen, nicht skarifizierten Rücken mit einer Mikro- und Makrokonidien-Suspension von Trichophyton mentagrophytes infiziert.
Die infizierten Tiere werden beginnend mit dem Tag der Infektion 1 x täglich mit 2,5 mg/kg Körpergewicht der Präparate oral behandelt. Die Behandlung wird 10 Tage fortgesetzt; die Tagesdosis beträgt jeweils 1 mal 2,5 mg/kg Körpergewicht.
Bei unbehandelten Tieren entwickelt sich innerhalb von 12 Tagen p.i. das typische Bild einer Dermatophytose mit Rötung, Schuppung und Haarausfall bis zum totalen Integument-Defekt an der Infektionsstelle.

Values after ≈ are worked out from the molar mass of the structure shown.

As for `CC(C#N)C(O)(Cn1cncn1)c1ccc(Cl)cc1` (stereo not drawn) [(A), 3-(4-Chlorphenyl)-3-hydroxy-2-methyl-4-(1,2,4-triazol-1-yl)-butyronitril], the MIC in the test with Asper-gillus fumi-gatus was 64 µg/mL (≈ 231 µM); in the test on Micro-sporum canis it was 32 µg/mL (≈ 116 µM); in the test on Tricho-phyton mentagr., 32 µg/mL (≈ 116 µM); in test [1], 16 to 32 µg/mL (≈ 57.8 to 116 µM); with Toru-lopsis gla-brata, 64 µg/mL (≈ 231 µM). Also, the Wirkung entry (in the test on Candida-Zellen; in test [2]) was “k.w” each time. Further, the “Wirkung (in words)” value (in the test on Candida-Zellen; in test [2]) was “keine Wirkung” throughout.

Take `CC(C)(C#N)C(O)(Cn1cncn1)c1ccc(Cl)cc1` (stereo not drawn) [(I), 3-(4-Chlorphenyl)-2,2-dimethyl-3-hydroxy-4-(1,2,4-triazol-1-yl)-butyronitril]: the MIC is 64 µg/mL (≈ 220 µM) in the test with Asper-gillus fumi-gatus; 4 to 8 µg/mL (≈ 13.8 to 27.5 µM) in the test with Micro-sporum canis; 4 to 8 µg/mL (≈ 13.8 to 27.5 µM) in the test on Tricho-phyton mentagr.; 4 to 8 µg/mL (≈ 13.8 to 27.5 µM) in test [1]; 32 to 64 µg/mL (≈ 110 to 220 µM) in the test with Toru-lopsis gla-brata. The Wirkung result is “++++ (= gute Wirkung = 80 % Überlebende am 6.Tag.p.i.)” with Candida-Zellen and “++++” in test [2]. Moreover, the “Wirkung (in words)” value (in the test on Candida-Zellen; in test [2]) was “gute Wirkung” throughout.
